# Measured values: ChEMBL document CHEMBL4808232, “Discovery of IDO1 inhibitors containing a decahydroquinoline, decahydro-1,6-naphthyridine, or octahydro-1H-pyrrolo[3,2-c]pyridine scaffold” (Bioorg Med Chem Lett, 2021)
# Experiments:
# [1] = Unbound clearance in male Wistar Han rat at 0.05 mg/kg, iv; format: ADME, organism-based; conditions: in vivo
# [2] = biological target: T1, Indoleamine 2,3-dioxygenase 1 (Homo sapiens, UniProt P14902); assay: Inhibition of IDO1 in human HeLa cells assessed as production of N-formylkynurenine using tryptophan as substrate in presence of inactivated fetal bovine serum; format: cell-based
# [3] = Clearance in Beagle dog at 0.05 mg/kg, iv; format: ADME, organism-based, Canis lupus familiaris; conditions: in vivo
# [4] = Clearance in male Wistar Han rats at 0.05 mg/kg, iv; format: ADME, organism-based; conditions: rat, in vivo
# [5] = MRT in Beagle dog at 0.05 mg/kg, iv; format: ADME, organism-based, Canis lupus familiaris; conditions: in vivo
# [6] = biological target: T1, Indoleamine 2,3-dioxygenase 1; assay: Inhibition of IDO1 in human whole blood assessed as unbound concentration; format: tissue-based
# [7] = biological target: T1, Indoleamine 2,3-dioxygenase 1; assay: Inhibition of IDO1 in human whole blood; format: tissue-based
# [8] = Unbound clearance in Beagle dog at 0.05 mg/kg, iv; format: ADME, organism-based, Canis lupus familiaris; conditions: in vivo
# [9] = MRT in male Wistar Han rat at 0.05 mg/kg, iv; format: ADME, organism-based; conditions: male, Wistar Han, in vivo, read-out: MRT
# T1 sequence (P14902 whole entry): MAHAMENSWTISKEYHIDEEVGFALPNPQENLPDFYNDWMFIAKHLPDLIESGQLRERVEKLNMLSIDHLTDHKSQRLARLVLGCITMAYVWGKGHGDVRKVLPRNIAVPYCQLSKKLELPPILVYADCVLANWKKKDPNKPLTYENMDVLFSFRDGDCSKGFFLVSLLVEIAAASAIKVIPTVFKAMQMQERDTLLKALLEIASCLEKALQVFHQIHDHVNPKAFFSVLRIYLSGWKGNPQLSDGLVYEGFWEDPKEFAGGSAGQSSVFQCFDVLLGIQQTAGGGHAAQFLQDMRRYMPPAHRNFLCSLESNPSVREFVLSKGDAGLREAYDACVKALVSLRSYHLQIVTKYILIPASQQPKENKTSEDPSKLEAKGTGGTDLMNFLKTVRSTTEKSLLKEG
compound,measurement,setting,value
CC(C(=O)Nc1ccc(Cl)cc1)N1CCC2C(CCCN2C(=O)OC2CC2)C1 (stereo in doubt; 27),CL free,[1],1613 mL/min/kg
same,IC50,[2],1.9 nM
same,clearance,[3],9 mL/min/kg
same,clearance,[4],22 mL/min/kg
same,MRT,[5],8.1 h
same,IC50,[6],0.73 nM
same,IC50,[7],43 nM
same,CL free,[8],727 mL/min/kg
same,MRT,[9],2.9 h
